Our source for the Kd values is publication PMC6751184, “Heme and hemoglobin utilization by Mycobacterium tuberculosis” (Nature Communications, 2019).

The target of the assay is DppA (Rv3666c), substrate-binding protein of the Dpp transporter (Mycobacterium tuberculosis, UniProt I6X811). As to the kind of experiment: […]; also difference absorption spectroscopy.

The structures appear in SMILES notation.

Chain of DppA (Rv3666c), substrate-binding protein of the Dpp transporter (I6X811 entry or part of it): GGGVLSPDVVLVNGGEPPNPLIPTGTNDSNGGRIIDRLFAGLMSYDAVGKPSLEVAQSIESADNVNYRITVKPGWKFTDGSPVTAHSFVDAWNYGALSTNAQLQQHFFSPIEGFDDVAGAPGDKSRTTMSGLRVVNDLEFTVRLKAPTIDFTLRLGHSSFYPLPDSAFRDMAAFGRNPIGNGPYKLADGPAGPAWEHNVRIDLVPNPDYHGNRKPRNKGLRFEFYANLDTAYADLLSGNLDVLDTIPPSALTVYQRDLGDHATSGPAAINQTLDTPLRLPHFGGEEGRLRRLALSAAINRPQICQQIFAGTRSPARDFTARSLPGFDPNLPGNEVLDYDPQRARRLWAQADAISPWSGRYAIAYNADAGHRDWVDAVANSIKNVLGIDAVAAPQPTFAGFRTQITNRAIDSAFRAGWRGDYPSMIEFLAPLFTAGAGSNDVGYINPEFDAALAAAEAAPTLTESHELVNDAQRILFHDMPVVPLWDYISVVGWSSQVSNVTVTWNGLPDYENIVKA

A word on the Kd: it is the equilibrium constant for the complex coming apart. Higher therefore signals weaker binding. Turning to `C=CC1=C(C)C2=Cc3c(C=C)c(C)c4[n]3[Fe]([Cl])[n]3c(c(C)c(CCC(=O)O)c3=CC3=NC(=C4)C(C)=C3CCC(=O)O)=CC1=N2` [hemin], the Kd is around 1500 nM.
